According to US20030186315A1, “ADMINISTRATION OF AN AGENT WHICH DECREASES PROCESSING OF AMYLOID PRECURSOR PROTEIN” (priority 1999, published 2003):

Legend:
[1] = test system: NT2N neurons; assay: ELISA distinguishing Aβ40 and Aβ42 in cell lysates and medium of BFA-treated NT2N neurons; type: cell-based, human
Procedure: Cell lysates and medium from the cells were then analyzed using an ELISA system which quantitatively distinguishes between Aβ40 and Aβ42 to ascertain whether alteration of Aβ levels by BFA was the result of altered levels of Aβ40, Aβ42 or both. Suzuki et al. 1994 Science 264:1336-1340. Results from the ELISA correlated with the immunoprecipitation data in that BFA abolished secretion of Aβ into the medium and reduced overall expression of intracellular Aβ by approximately 60%. However, it was the complete loss of […] that accounted for this decrease. […] Thus, γ-secretases appear to be active in the endoplasmic reticulum, but only to yield Aβ42. Further, it is believed that Aβ42 is preferentially generated in the ER while Aβ40, is generated in more distal components of the exocytic pathway.
NT2N neurons were pretreated with 20 Ag/ml of BFA for 1 hour before the addition of 0.5 mCi/ml of [^35S] methionine to the cultures for 16 hours in the absence or presence of BFA. The cell lysates and media were processed for immunoprecipitation as described in Example 3. For deglycosylation of APPG, the immunoprecipitates containing APPβ were washed twice in sodium phosphate buffer (20 mmol/l, pH 7.2) and boiled for 2 minutes in 10 μl of 1% SDS. The samples were then boiled for an additional 2 minutes after adding 90 μl of the sodium phosphate buffer with sodium azide (10 mmol/l), EDTA (50 mmol/l), and n-Octylglucoside (0.5% w/v). After this denaturation step, deglycosylation was initiated by the addition of 2 mU Neuraminidase (Arthrobacter; Boehringer Mannheim, Indianapolis, Ind.), 2.5 mU 0-Glycosidase (Boehringer Mannheim, Indianapolis, Ind.), and 0.4 U N-Glycosidase F (Boehringer Mannheim, Indianapolis, IN). The samples were then incubated at 37° C. for 18 hours and deglycosylated APPβ was run on 7.5% SDS-PAGE gels as described in Example 2.

[2] = test system: NT2N neurons; assay: Brefeldin A treatment of [35S]methionine-labeled NT2N neurons, immunoprecipitation of APP fragments from cell lysates and media; type: cell-based, human
Description: The detection of APPβ in the cell lysate of NT2N neurons, together with the presence of Aβ40 and Aβ42 (Turner et al. 1996 J. Biol. Chem. 271:8966-8970), establish that an intracellular β-secretase pathway(s) exists in these cells. At present, no other cell line has been reported to produce detectable levels of intracellular APPβ from endogenous or over-expressed wild-type APP (Seubert et al. 1993 Nature 361:260-263; Haass et al. 1995a Nature Med. 1:1291-1296; Thinakaran et al. 1996b J. Biol. Chem. 271:9390-9397). […] In the absence of BFA, APPFL, APPβ, and Aβ were recovered from the cell lysates while APPα, APPβ, and Aβ were detected in the media of NT2N neurons.
Cultured NT2N neurons were starved in methionine-free DMEM HG (Life Technologies, Inc., Gaithersburg, Md.) for 30 minutes prior to incubation in fresh methionine-free DMEM HG containing 0.5 mCi/ml of [^35S]methionine (sp act. 1000 Ci/mmol; NEN-DuPont, Boston, Mass.). […] Quantitation of bands in the autoradiogram was performed using the ImageQuant software (Molecular Dynamics Inc. Sunnyvale, Calif.) in accordance with procedures described by Turner et al. 1996 J. Biol. Chem. 271:8966-8970. Radiolabeled proteins in SDS-PAGE gels and nitrocellulose replicas were also analyzed by standard autoradiographic methods. […]

[3] = test system: human kidney 293 cells stably transfected with APPsw cDNA; settings: non-neuronal 293 cells expressing APPsw; cited from earlier work
[4] = test system: NT2N cells; assay: Indirect immunofluorescence microscopy of cell surface distribution of SFV-expressed APP695 in NT2N cells; type: cell-based, human; settings: SFV-infected NT2N cells, 20 μg/ml BFA after infection
Procedure: Since BFA treatment results in retention of all newly synthesized proteins in the ER, additional experiments were conducted to confirm that the generation of Aβ42 in the ER was not due to retention of newly synthesized proteases not being delivered to their proper site of action. Accordingly, an ER-retention signal was placed in APP695 in which the third and fourth amino acids from the C-terminus were changed to lysine (APP695ΔKK) . This lysine motif is sufficient to retain heterologous transmembrane proteins in the ER and intermediate compartment. In these experiments, recombinant Semliki Forest virus (SFV) vectors to express APP695ΔKK. Previous studies have shown that despite high levels of SFV-mediated APP expression, SFV infected NT2N cells display a high degree of fidelity in processing APP (Wertkin et al. 1993 Proc. Natl. Acad. Sci. USA 90:9513-9517; Turner et al. 1996 J. Biol. Chem. 271:8966-8970). […] To determine if APP695ΔKK was in fact retained in the ER, indirect immunofluorescence microscopy was used to monitor both intracellular and cell surface distribution of SFV-expressed APP695 and APP695ΔKK. While intracellular levels of APP695 and APP695ΔKK appeared similar, only APP695 was expressed on the cell surface. […]

C[C@H]1CCC/C=C/[C@@H]2C[C@H](O)C[C@H]2[C@H](O)/C=C/C(=O)O1 [BFA, Brefeldin A]
intracellular Aβ40 ([1]; cell lysate): complete loss
intracellular Aβ42 ([1]; cell lysate): largely unaffected
reduction of overall expression of intracellular Aβ ([1]; cell lysate): approximately 60%
secretion of Aβ into the medium ([1]; medium): abolished
secretion of APPα, APPβ, and Aβ into the medium ([2]; 20 μg/ml BFA, immunoprecipitation of media): completely abolished
electrophoretic mobility of APPβ from BFA-treated versus untreated cells ([2]; SDS-PAGE of immunoprecipitated APPβ): migrated more quickly
APPβsw and Aβ production [3]: completely eliminates
surface expression of APP695 [4]: blocked
